Results: US20240208954A1, “OXADIAZOLE COMPOUND, PREPARATION METHOD THEREFOR, PHARMACEUTICAL COMPOSITION AND USE THEREOF” (SHANGHAI INSTITUTE OF MATERIA MEDICA, CHINESE ACADEMY OF …, priority 2020, published 2024)
Where “and” joins values, the source holds several entries; their conditions need not be identical. Equal entries are not always repeated. Entries after “also recorded” stand apart in the source; their conditions may differ. Where two headings read alike, the source gives them in different places.

Tests used:
[1] = Preliminary assessment of in vivo pharmacokinetics in rats; settings: for MRT inf: read-out: MRT0-∞
[2] = test system: dextran sodium sulfate (DSS)-induced IBD model; assay: Pharmacological activity test in DSS-induced IBD model; format: in vivo, mice
Experimental: The mice were randomly divided into […]: normal control group (Control,n=5), model control group (Model,n=11), positive compound BAF312 group (0.3 mg/kg,n=10), low dose group (0.03 mg/kg,n=10), medium dose group (0.3 mg/kg,n=10), high dose group (3 mg/kg, n=10), and each group was administered by gavage in a volume of 5 mL/kg once a day. DSS with an average molecular weight of 36000˜50000 Da was dissolved in drinking water to make 2% DSS solution, and the mice in the modeling group were allowed to drink it freely for 6 days, while the drug administration treatments were carried out simultaneously. The body weight, fecal hardness and occult blood of mice in each group were observed every day, and the scores of each index were summed to obtain the disease activity index of each animal. After 6 days of completion of modeling and drug administration, the modeling reagents were withdrawn for a 1-day remission period, and the mice were sacrificed by dislocation after blood was taken via the posterior ophthalmic plexus. Colon tissue and spleen were measured for length or weighed, part of the colon was fixed in 4% paraformaldehyde, and all tissues and serum were stored at −80° C.

[3] = rat, plasma, oral, 20 mg/kg, intragastric 20 mg/kg, individual animals 4-6, read-out: Plasma drug concentrations in rats
[4] = rat, plasma, oral, 20 mg/kg, intragastric 20 mg/kg, mean, read-out: Plasma drug concentrations in rats
[5] = rat, plasma, po, 20 mg/kg, rats, intragastric 20 mg/kg, individual animals 4-6
[6] = rat, plasma, po, 20 mg/kg, rats, intragastric 20 mg/kg, mean
[7] = rats, intragastric 20 mg/kg, individual animals 4-6, listed as DC411151
[8] = rats, intravenous 2 mg/kg, individual animals 1-3, listed as DC411151, 2 mg/kg

For `CC(C)Oc1ccc(-c2nc(-c3ccc(CN4CC(C(=O)O)C4)c4ccccc34)no2)cc1C#N.Cl` [Compound A1, 1-((4-(5-(3-cyano-4-isopropoxyphenyl)-1,2,4-oxadiazol-3-yl)naphthalen-1-yl)methyl) azetidine-3-carboxylic acid hydrochloric acid], which AUC0-t ([1]; rat, plasma, iv, 2 mg/kg, rats, intravenous 2 mg/kg, mean, read-out: AUC0-t) is on record?
Its AUC0-t is 3850 ng·h/mL.

And the MRT inf ([1]; rat, plasma, iv, 2 mg/kg, rats, intravenous 2 mg/kg, mean)?
The MRT inf was 1.47 h.

What about the concentration at 0.25 h ([1]; rat, plasma, oral, 20 mg/kg, intragastric 20 mg/kg, 0.25 h, mean, read-out: Plasma drug concentrations in rats) of the same compound?
The concentration at 0.25 h was 1270 ng/mL.

What about the concentration at 0.5 h [1, 3] of the same compound?
Its concentration at 0.5 h is 3130 ng/mL.

And the concentration at 0.5 h [1, 4]?
Its concentration at 0.5 h is 2430 ng/mL.

What about the concentration at 1 h [1, 3] of the same compound?
The concentration at 1 h was 2560 ng/mL.

And the concentration at 1 h [1, 4]?
The concentration at 1 h was 2570 ng/mL.

What about the concentration at 2 h [1, 3] of the same compound?
The concentration at 2 h was 2290 ng/mL.

What about the concentration at 2 h [1, 4] of the same compound?
The concentration at 2 h was 1890 ng/mL.

And the concentration at 4 h [1, 3]?
The concentration at 4 h was 884 ng/mL.

What about the concentration at 4 h [1, 4] of the same compound?
The concentration at 4 h was 787 ng/mL.

What about the concentration at 6 h [1, 3] of the same compound?
The concentration at 6 h was 322 ng/mL.

What about the concentration at 6 h [1, 4] of the same compound?
The concentration at 6 h was 320 ng/mL.

What about the concentration at 8 h [1, 3] of the same compound?
The concentration at 8 h was 65.1 ng/mL.

What about the concentration at 8 h [1, 4] of the same compound?
Its concentration at 8 h is 62 ng/mL.

And the concentration at 24 h [1, 3]?
The concentration at 24 h was 4.33 ng/mL.

And the concentration at 24 h [1, 4]?
The concentration at 24 h was 3.25 ng/mL.

What about the bioavailability ([1]; rat, plasma, oral, rats, 20 mg/kg by gavage vs 2 mg/kg intravenous, read-out: absolute bioavailability) of the same compound?
The bioavailability was 22.8%.

What about the Tmax ([1]; rat, plasma, po, 20 mg/kg, rats, 20 mg/kg by gavage, range over animals, read-out: peak time Tmax) of the same compound?
The Tmax was 30 to 60 min.

And the AUC(0-inf) [1, 5]?
The AUC(0-inf) was 9600 ng·h/mL.

And the half-life [1, 5]?
The half-life was 147 min.

What about the AUC0-t ([1]; rat, plasma, po, 20 mg/kg, rats, intragastric 20 mg/kg, individual animals 4-6, read-out: AUC0-t) of the same compound?
Its AUC0-t is 9590 ng·h/mL.

What about the Cmax ([1]; rat, plasma, po, 20 mg/kg, rats, intragastric 20 mg/kg, individual animals 4-6, read-out: Cmax) of the same compound?
Its Cmax is 3070 ng/mL.

What about the MRT inf [1, 5] of the same compound?
The MRT inf was 2.55 h.

And the Tmax ([1]; rat, plasma, po, 20 mg/kg, rats, intragastric 20 mg/kg, individual animals 4-6, read-out: Tmax)?
Its Tmax is 30 min.

And the AUC(0-inf) [1, 6]?
Its AUC(0-inf) is 8790 ng·h/mL.

What about the half-life [1, 6] of the same compound?
The half-life was 149 min.

And the MRT inf [1, 6]?
Its MRT inf is 2.72 h.

And the Tmax ([1]; rat, plasma, po, 20 mg/kg, rats, intragastric 20 mg/kg, mean, read-out: Tmax)?
Its Tmax is 50 min.

What about the AUC0-t [1, 7] of the same compound?
The AUC0-t was 10100 ng·h/mL and 6710 ng·h/mL.

What about the “AUC0-∞” value [1, 7] of the same compound?
The value was 10100 ng·h/mL and 6720 ng·h/mL.

And the Cmax [1, 7]?
Its Cmax is 3130 ng/mL and 2070 ng/mL.

What about the “MRT0-∞” value [1, 7] of the same compound?
The value was 2.62 h and 3.00 h.

And the t1/2 [1, 7]?
The t1/2 was 2.5 h and 2.51 h.

What about the clearance classification ([1]; rats, intravenous 2 mg/kg) of the same compound?
The clearance classification was “low clearance drug”.

What about the “plasma clearance as share of rat liver blood flow (about 55 mL/min/kg)” value ([1]; rats, intravenous 2 mg/kg) of the same compound?
The value was 15.7%.

What about the AUC0-t [1, 8] of the same compound?
The AUC0-t was 4030 ng·h/mL and 3960 ng·h/mL.

What about the “AUC0-∞” value [1, 8] of the same compound?
The value was 4040 ng·h/mL and 3980 ng·h/mL.

What about the CL [1, 8] of the same compound?
The CL was 8.26 mL/min/kg and 8.38 mL/min/kg.

And the “MRT0-∞” value [1, 8]?
The value was 1.52 h and 1.69 h.

What about the Vss [1, 8] of the same compound?
The Vss was 0.752 L/kg and 0.85 L/kg.

What about the t1/2 [1, 8] of the same compound?
The t1/2 was 1.15 h and 3.67 h and 4.3 h.

What about the “impaired crypt and inflammatory infiltration in colon sites” value ([2]; H&E-stained colon sections, high/medium doses (3/0.3 mg/kg)) of the same compound?
Its value is “effectively improve”.

What about the “overall effect in the IBD model” value ([2]; concluding statement) of the same compound?
Its value is “significant anti-inflammatory as well as pathological ameliorating effects”.

What about the “weight of the spleen” value ([2]; high/medium/low doses) of the same compound?
The value was “without affecting”.

What about the “disease process (weight change, stool consistency, rectal bleeding, disease activity index)” value ([2]; high/medium/low doses (3/0.3/0.03 mg/kg), gavage once a day, to different degrees) of the same compound?
The value was “effective in alleviating; also recorded: alleviated”.

What about the “shorten of colon length” value ([2]; high/medium/low doses (3/0.3/0.03 mg/kg), to different degrees) of the same compound?
Its value is “effective in alleviating”.
